Experimental data taken from US20240228482A1, “COMPOUNDS, COMPOSITIONS AND METHODS OF TREATING CANCER” (HOTSPOT THERAPEUTICS, INC., priority 2021, published 2024).

biological target: T1, CBL-B (Homo sapiens, UniProt Q13191); test: CBL-B TR-FRET IC50 screening (E1/E2 ubiquitination, Biotin-Ubiquitin, Anti GST-Tb donor / Streptavidin-d2 acceptor); format: biochemical; conditions: CBL-B 10 nM final; 11-point titration from 100 uM; binned A-F; read-out: CBL-B TR-FRET activity IC50
T1 construct: GST
T1 sequence (Q13191 whole entry): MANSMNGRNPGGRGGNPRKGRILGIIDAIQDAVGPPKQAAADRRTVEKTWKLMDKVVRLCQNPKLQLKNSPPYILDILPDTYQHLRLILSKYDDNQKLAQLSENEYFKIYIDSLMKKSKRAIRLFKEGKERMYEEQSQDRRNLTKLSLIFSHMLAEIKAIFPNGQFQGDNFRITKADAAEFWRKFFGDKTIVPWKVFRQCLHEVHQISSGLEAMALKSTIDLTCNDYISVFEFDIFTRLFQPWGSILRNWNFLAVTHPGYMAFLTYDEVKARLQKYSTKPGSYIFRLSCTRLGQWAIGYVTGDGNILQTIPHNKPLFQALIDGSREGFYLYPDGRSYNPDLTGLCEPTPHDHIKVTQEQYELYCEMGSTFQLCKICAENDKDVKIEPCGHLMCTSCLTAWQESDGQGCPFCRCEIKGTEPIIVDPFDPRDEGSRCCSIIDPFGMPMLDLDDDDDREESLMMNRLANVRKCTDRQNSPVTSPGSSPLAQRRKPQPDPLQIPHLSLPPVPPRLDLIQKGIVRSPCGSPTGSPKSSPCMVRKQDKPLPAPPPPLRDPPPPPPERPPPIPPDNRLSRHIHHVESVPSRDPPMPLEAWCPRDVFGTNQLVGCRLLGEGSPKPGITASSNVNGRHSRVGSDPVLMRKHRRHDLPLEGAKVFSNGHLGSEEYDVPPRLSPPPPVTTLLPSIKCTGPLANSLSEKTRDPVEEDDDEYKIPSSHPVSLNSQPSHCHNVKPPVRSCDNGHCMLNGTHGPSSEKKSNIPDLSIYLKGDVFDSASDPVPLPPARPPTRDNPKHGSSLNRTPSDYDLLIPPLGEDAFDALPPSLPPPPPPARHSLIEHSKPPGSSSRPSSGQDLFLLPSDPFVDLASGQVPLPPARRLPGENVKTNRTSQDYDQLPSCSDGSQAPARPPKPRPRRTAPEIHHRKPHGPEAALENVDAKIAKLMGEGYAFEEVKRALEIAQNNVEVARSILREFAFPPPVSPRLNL

First: Cc1[nH]nnc1[C@H](c1cccc(-n2cc3c(C(F)(F)F)cc(CN4CCC[C@H](C)C4)cn3c2=O)c1)C1CCC1 [Compound 326]
Second: Cc1scnc1[C@@H](c1cccc(-n2cc3c(C(F)(F)F)cc(CN4CCC[C@H](C)C4)cn3c2=O)c1)C1CCC1 (single isomer, unassigned) [Compound 283]
The IC50 of the first is lower: less than 100 nM for the first, greater than 10000 nM for the second. The first is the more potent here.

`C[C@H](c1cc(C(F)(F)F)c2cn(-c3cccc(C4([C@@H](F)c5nncn5C)COC4)c3)c(=O)n2c1)N1CCC2(CC2)C1` [Compound 55] and `C[C@H](c1cc(C(F)(F)F)c2cn(-c3cccc(C4(Cc5nncn5C)COC4)c3)c(=O)n2c1)N1CC[C@H](F)C1` [Compound 40] cannot be ordered by IC50: less than 100 nM for the first, less than 100 nM for the second.

`C[C@@H](c1cc(C(F)(F)F)c2cn(-c3cccc(C4(Cc5nncn5C)COC4)c3)c(=O)n2c1)N1CC2CC2C1` (single isomer, unassigned) [Compound 32] and `Cn1cnnc1CC1(c2cccc(-n3cc4c(C(F)(F)F)cc(CN5CC6CC6C5)cn4c3=O)c2)COC1` (stereo not shown) [Compound 25] cannot be ordered by IC50: less than 100 nM for the first, less than 100 nM for the second.

Compared with `C[C@H]1CCCN(Cc2cc(C(F)(F)F)c3cn(-c4cccc([C@@H](c5nncn5C)C5CC(F)(F)C5)c4)c(=O)n3c2)C1` (single isomer, unassigned) [Compound 342], `CC1CN(Cc2cc(C(F)(F)F)c3cn(-c4cccc([C@@H](c5nncn5C)C5CCC5)c4)c(=O)n3c2)CCC1(F)F` (single isomer, unassigned) [Compound 170] is lower in IC50: greater than 10000 nM for the first, 1000 to 3000 nM for the second.

Compared with `Cn1cnnc1CC1(c2cc(Br)cc(-n3cc4c(C(F)(F)F)cccn4c3=O)c2)COC1` [Compound 180], `CNS(=O)(=O)c1cc(C(F)(F)F)c2cn(-c3cccc(C4(Cc5nncn5C)COC4)c3)c(=O)n2c1` [Compound 175] is lower in IC50: 3000 to 10000 nM for the first, 1000 to 3000 nM for the second. The second is the more potent here.

Compared with `CC(Cc1nncn1C)c1cccc(-n2cc3c(C(F)(F)F)cccn3c2=O)c1` (stereo not shown) [Compound 1], `Cn1cnnc1C[C@@H]1CCc2c1cccc2-n1cc2c(C(F)(F)F)cccn2c1=O` [Compound 17] is higher in IC50: 301 to 1000 nM for the first, greater than 10000 nM for the second.

First: Cn1cnnc1CC1(c2cccc(-n3cc4c(C(F)(F)F)cccn4c3=O)c2)CN(C(=O)OC(C)(C)C)C1 [Compound 133]
Second: Cn1cnnc1CC1(c2cccc(-n3cc4c(C(F)(F)F)cc(OCC(C)(C)O)cn4c3=O)c2)COC1 [Compound 98]
The IC50 of the first is higher: greater than 10000 nM for the first, 100 to 300 nM for the second. The second is the more potent here.

`[2H]C([2H])([2H])n1cnnc1CC1(c2cccc(-n3cc4c(C(F)(F)F)cc([C@H](C)N5CCC[C@H](C)C5)cn4c3=O)c2)COC1` [Compound 278_P1] and `CC(c1cc(C(F)(F)F)c2cn(-c3cccc(C4(Cc5nncn5C(F)F)COC4)c3)c(=O)n2c1)N1CCC(F)CC1` (single isomer, unassigned) [Compound 97] cannot be ordered by IC50: less than 100 nM for the first, less than 100 nM for the second.

First: C[C@H]1CCCN(Cc2cc(C(F)(F)F)c3cn(-c4cccc([C@]5(c6nncs6)C[C@@H](C)C5)c4)c(=O)n3c2)C1 (single isomer, unassigned) [Compound 292]
Second: C[C@H]1CCCN(Cc2cc(C(F)(F)F)c3cn(-c4cccc(N(c5nncs5)C5CCC5)c4)c(=O)n3c2)C1 [Compound 344]
The IC50 of the first is lower: 100 to 300 nM for the first, greater than 10000 nM for the second.

`Cn1cnnc1[C@@H](c1cccc(-n2cc3c(C(F)(F)F)cc(CN4CCC(C)(C)C4)cn3c2=O)c1)C1CCC1` [Compound 245] and `Cn1cnnc1[C@@H](c1cccc(-n2cc3c(C(F)(F)F)cc(CN4CC(C)(F)C4)cn3c2=O)c1)C1CCC1` [Compound 298] cannot be ordered by IC50: less than 100 nM for the first, less than 100 nM for the second.

First: COC1CCN(Cc2cc(C(F)(F)F)c3cn(-c4cccc([C@@H](c5nncn5C)C5CCC5)c4)c(=O)n3c2)CC1 (single isomer, unassigned) [Compound 235]
Second: Cn1cnnc1[C@@H](c1cccc(-n2cc3c(C(F)(F)F)cc(CN4CC(F)C4)cn3c2=O)c1)C1CCC1 [Compound 297]
The IC50 of the first is higher: 1000 to 3000 nM for the first, less than 100 nM for the second. The second is the more potent here.

Going from `C[C@H]1CCCN(Cc2cc(C(F)(F)F)c3cn(-c4cc([C@H](c5nncn5C)C5CCC5)cc(C(F)(F)F)c4)c(=O)n3c2)C1` (single isomer, unassigned) [Compound 224] to `CC(c1cc(C(F)(F)F)c2cn(-c3cccc([C@H](c4nncn4C)C4CCC4)c3)c(=O)n2c1)N1CCC[C@H](C)C1` (single isomer, unassigned) [Compound 194], the IC50 falls from greater than 10000 nM to less than 100 nM.

First: Cn1cnnc1[C@]1(c2cccc(-n3cc4c(C(F)(F)F)cc(CN5CCc6ncsc6C5)cn4c3=O)c2)C[C@@H](C)C1 (single isomer, unassigned) [Compound 309]
Second: Cn1cnnc1CC1(c2cccc(-n3cc4c(C(F)(F)F)cc(CN5CC[C@H](F)C5)cn4c3=O)c2)COC1 [Compound 14]
The IC50 of the first is higher: 100 to 300 nM for the first, less than 100 nM for the second.

Compared with `C[C@@H]1CN([C@H](C)c2cc(C(F)(F)F)c3cn(-c4cccc([C@@H](c5nncn5C)C5CCC5)c4)c(=O)n3c2)CCO1` (single isomer, unassigned) [Compound 231], `[2H]C([2H])([2H])n1cnnc1[C@H](c1cccc(-n2cc3c(C(F)(F)F)cc(CN4CCO[C@H](C)C4)cn3c2=O)c1)C1CCC1` (single isomer, unassigned) [Compound 138] is lower in IC50: 3000 to 10000 nM for the first, 1000 to 3000 nM for the second.

First: Cn1cnnc1[C@@H](c1cccc(-n2cc3c(C(F)(F)F)cc(CN4CC5(CC5)C4)cn3c2=O)c1)C1CCC1 (single isomer, unassigned) [Compound 165]
Second: Cn1cnnc1[C@H](c1cccc(-n2cc3c(C(F)(F)F)cc(CN4CC5(CC5)C4)cn3c2=O)c1)C1CCC1 (single isomer, unassigned) [Compound 164]
The IC50 of the first is lower: less than 100 nM for the first, 3000 to 10000 nM for the second. The first is the more potent here.

First: CN1C2CCC1CN(c1cc(C(F)(F)F)c3cn(-c4cccc([C@H](c5nncn5C)C5CCC5)c4)c(=O)n3c1)C2 [Compound 374]
Second: Cn1cnnc1CC1(c2cccc(-n3cc4c(C(F)(F)F)cc(CN5CC[C@@H](O)C5)cn4c3=O)c2)COC1 [Compound 130]
The IC50 of the first is higher: 301 to 1000 nM for the first, 100 to 300 nM for the second. The second is the more potent here.

Compared with `Cn1cnnc1CC1(c2cccc(-n3cc4c(Cl)cc(CN5CCC6(CC6)C5)cn4c3=O)c2)COC1` (single isomer, unassigned) [Compound 67], `Cn1cnnc1CC1(c2cccc(-n3cc4c(C(F)(F)F)cc(C5=CCNC5)cn4c3=O)c2)COC1` [Compound 64] is higher in IC50: less than 100 nM for the first, 1000 to 3000 nM for the second. The first is the more potent here.

For `CN(C)C(=O)c1cc(C(F)(F)F)c2cn(-c3cccc(C4(Cc5nncn5C)COC4)c3)c(=O)n2c1` [Compound 31], the IC50 was 301 to 1000 nM.

same assay, conditions: second part of Table 2 (head 'Patent Cmpd No / Updated Activity'); same CBL-B TR-FRET IC50 bins A-F; read-out: Updated Activity

`CCS(=O)(=O)N(C)Cc1cc(C(F)(F)F)c2cn(-c3cccc([C@H](c4nncn4C)C4CCC4)c3)c(=O)n2c1` [Compound 590] and `CN1C(=O)CCN1Cc1cc(C(F)(F)F)c2cn(-c3cccc([C@H](c4nncn4C)C4CCC4)c3)c(=O)n2c1` [Compound 498] cannot be ordered by IC50: less than 100 nM for the first, less than 100 nM for the second.

`C[C@H]1CCCN(Cc2cc(C(F)(F)F)c3cn(-c4cccc([C@@H](c5nncn5C)[C@H]5C[C@](C)(O)C5)c4)c(=O)n3c2)C1` (single isomer, unassigned) [Compound 576] and `C[C@H]1CCCN(Cc2cc(C(F)(F)F)c3cn(-c4cccc([C@H](c5nncn5C)[C@H]5C[C@](C)(O)C5)c4)c(=O)n3c2)C1` (single isomer, unassigned) [Compound 575] cannot be ordered by IC50: greater than 10000 nM for the first, greater than 10000 nM for the second.

First: C[C@@H](c1cc(C(F)(F)F)c2cn(-c3cccc([C@H](c4nncn4C)C4CCC4)c3)c(=O)n2c1)N1CCC[C@@H](C(F)(F)F)C1 (single isomer, unassigned) [Compound 614]
Second: CC(C)n1cnnc1[C@@H](c1cccc(-n2cc3c(C(F)(F)F)cc(CN4CCC[C@H](C)C4)cn3c2=O)c1)C1CCC1 (single isomer, unassigned) [Compound 425]
The IC50 of the first is lower: less than 100 nM for the first, greater than 10000 nM for the second. The first is the more potent here.

`C[C@@H]1CN(Cc2cc(C(F)(F)F)c3cn(-c4cccc([C@H](CC5CCC5)c5nncn5C)c4)c(=O)n3c2)CCO1` [Compound 402] and `C[C@@H]1CN(Cc2cc(C(F)(F)F)c3cn(-c4cc(F)cc([C@@H](c5nncn5C)C5CCC5)c4)c(=O)n3c2)CCO1` (single isomer, unassigned) [Compound 515] cannot be ordered by IC50: greater than 10000 nM for the first, greater than 10000 nM for the second.

`C[C@H]1CCCN(Cc2cc(C(F)(F)F)c3cn(-c4cccc([C@H](c5nc(CO)cn5C)C5CCC5)c4)c(=O)n3c2)C1` (single isomer, unassigned) [Compound 585] and `Cc1sc(CO)nc1[C@@H](c1cccc(-n2cc3c(C(F)(F)F)cc(CN4CCC[C@H](C)C4)cn3c2=O)c1)C1CCC1` (single isomer, unassigned) [Compound 391] cannot be ordered by IC50: greater than 10000 nM for the first, greater than 10000 nM for the second.

`Cn1cnnc1C1(c2cccc(-n3cc4c(C(F)(F)F)cc(CN5CCC[C@@H](C(F)(F)F)C5)cn4c3=O)c2)CC2(CC2)C1` (single isomer, unassigned) [Compound 481] and `Cn1cnnc1C1(c2cccc(-n3cc4c(C(F)(F)F)cc(CN5CC6(CC6)C5)cn4c3=O)c2)CCC1` [Compound 451] cannot be ordered by IC50: less than 100 nM for the first, less than 100 nM for the second.

Compared with `[2H]C([2H])(c1cc(C(F)(F)F)c2cn(-c3cccc([C@H](c4nncn4C)C4COC4)c3)c(=O)n2c1)N1CCC[C@H](C)C1` [Compound 546], `CO[C@H]1C[C@H]([C@H](c2cccc(-n3cc4c(C(F)(F)F)cc(CN5CCC[C@H](C)C5)cn4c3=O)c2)c2nncn2C)C1` (single isomer, unassigned) [Compound 552] is higher in IC50: less than 100 nM for the first, 301 to 1000 nM for the second.

First: COC1([C@@H](c2cccc(-n3cc4c(C(F)(F)F)cc(CN5CCC[C@H](C)C5)cn4c3=O)c2)c2nncn2C)CCC1 (single isomer, unassigned) [Compound 579]
Second: C[C@H]1CCCN(Cc2cc(C(F)(F)F)c3cn(-c4cccc(C5(c6nncs6)CCC5)c4)c(=O)n3c2)C1 [Compound 626]
The IC50 of the first is higher: 301 to 1000 nM for the first, less than 100 nM for the second.

First: Cn1cnnc1[C@H](c1cc(-c2ccncn2)cc(-n2cc3c(C(F)(F)F)cccn3c2=O)c1)C1CCC1 (single isomer, unassigned) [Compound 441]
Second: C[C@@H]1CC(=O)NN1Cc1cc(C(F)(F)F)c2cn(-c3cccc([C@H](c4nncn4C)C4CCC4)c3)c(=O)n2c1 (single isomer, unassigned) [Compound 598]
The IC50 of the first is higher: greater than 10000 nM for the first, less than 100 nM for the second.

`Cn1cnnc1[C@@H](c1cc(F)cc(-n2cc3c(C(F)(F)F)cc(CN4CCC(C)(F)CC4)cn3c2=O)c1)C1CCC1` (single isomer, unassigned) [Compound 534] and `C[C@@H]1C[C@H](C)CN(Cc2cc(C(F)(F)F)c3cn(-c4cccc([C@H](c5nncn5C)C5CCC5)c4)c(=O)n3c2)C1` [Compound 449] cannot be ordered by IC50: less than 100 nM for the first, less than 100 nM for the second.
